{
  "source": "ChEMBL document CHEMBL3217450",
  "about": "“Structure based virtual screening for discovery of novel human neutrophil elastase inhibitors” (Medchemcomm, 2012)",
  "key": {"Neutrophil elastase": {"target": "T1, Neutrophil elastase (Homo sapiens, UniProt P08246)", "T1 sequence (P08246 whole entry)": "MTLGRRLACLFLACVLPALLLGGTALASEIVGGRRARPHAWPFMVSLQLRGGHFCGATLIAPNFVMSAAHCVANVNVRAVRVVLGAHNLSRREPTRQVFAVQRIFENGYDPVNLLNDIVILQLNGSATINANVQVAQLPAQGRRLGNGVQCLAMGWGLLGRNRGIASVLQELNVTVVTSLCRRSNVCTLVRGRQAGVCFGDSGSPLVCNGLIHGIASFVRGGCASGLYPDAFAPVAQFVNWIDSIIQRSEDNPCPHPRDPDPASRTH", "assay": "Inhibition of human neutrophil elastase using N-MeOSuc-Ala-Ala-Pro-Val-p-nitroanilide as substrate incubated for 30 mins prior to substrate addition measured for 60 mins by chromogenic 96 well microplate assay"}, "Cathepsin G": {"target": "T2, Cathepsin G (Homo sapiens, UniProt P08311)", "T2 sequence (P08311 whole entry)": "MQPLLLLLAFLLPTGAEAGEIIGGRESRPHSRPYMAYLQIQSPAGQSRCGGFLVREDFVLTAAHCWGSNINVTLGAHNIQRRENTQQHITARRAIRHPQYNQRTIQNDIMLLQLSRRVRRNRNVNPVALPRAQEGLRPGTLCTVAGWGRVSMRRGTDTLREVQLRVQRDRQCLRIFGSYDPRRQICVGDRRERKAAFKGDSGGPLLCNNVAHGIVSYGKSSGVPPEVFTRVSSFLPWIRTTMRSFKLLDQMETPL", "assay": "Inhibition of cathepsin G in human neutrophil using Suc-Ala-Ala-Pro-Phe-p-nitroanilide as chromogenic substrate incubated for 30 mins prior to substrate addition measured for 30 mins by progress curve method"}, "Myeloblastin": {"target": "T3, Myeloblastin (Homo sapiens, UniProt P24158)", "T3 sequence (P24158 whole entry)": "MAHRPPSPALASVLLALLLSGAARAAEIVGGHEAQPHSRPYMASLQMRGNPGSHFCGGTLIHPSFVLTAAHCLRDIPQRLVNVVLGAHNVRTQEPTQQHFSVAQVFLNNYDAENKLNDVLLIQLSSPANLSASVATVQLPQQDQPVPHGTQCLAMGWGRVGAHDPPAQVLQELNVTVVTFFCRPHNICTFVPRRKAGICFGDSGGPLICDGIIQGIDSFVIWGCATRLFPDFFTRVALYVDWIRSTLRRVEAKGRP", "assay": "Inhibition of proteinase 3 in human neutrophil using N-MeOSuc-Ala-Ala-Pro-Val-p-nitroanilide as chromogenic substrate measured for 60 mins by chromogenic assay"}, "[1]": {"target": "T4, Neutrophil elastase (Homo sapiens) (UniProt P08246)", "T4 sequence (whole entry)": "T1 sequence (P08246 whole entry)", "assay": "Competitive inhibition of human neutrophil elastase assessed as product formation using N-MeOSuc-Ala-Ala-Pro-Val-p-nitroanilide as substrate measured for 120 mins by chromogenic 96 well microplate assay"}, "HEK-293T": {"system": "HEK-293T", "assay": "Cytotoxicity against human HEK293T cells after 24 hrs", "type": "cell-based"}, "Pancreatic elastase": {"target": "Pancreatic elastase (Sus scrofa, UniProt P08419+P00772)", "assay": "Inhibition of porcine pancreatic elastase using MeO-Suc-Ala-Ala-Pro-Val-AMC as substrate incubated for 30 mins prior to substrate addition measured for 30 mins by incubation method based fluorescence analysis", "type": "protein assay"}, "[2]": {"assay": "Chemical stability of the compound in phosphate buffer at pH 7.4 assessed as compound remaining at 50 uM after 2 days by HPLC analysis", "type": "physicochemical", "conditions": "read-out: Stability"}, "[3]": {"assay": "Cytotoxicity against mouse NIH/3T3 cells after 24 hrs", "type": "cell-based", "conditions": "NIH3T3, 24 h"}, "[4]": {"assay": "Chemical stability of the compound in phosphate buffer at pH 7.4 assessed as compound remaining at 100 uM after 2 days by HPLC analysis", "type": "physicochemical", "conditions": "read-out: Stability"}, "[5]": {"assay": "Metabolic stability in human plasma assessed as compound remaining after 2 days by HPLC analysis", "type": "ADME, cell-free", "conditions": "read-out: Stability"}, "[6]": {"assay": "Metabolic stability in Sprague-Dawley rat pooled liver microsomes assessed as compound remaining after 2 days by HPLC analysis in presence of NADPH generating system", "type": "ADME", "conditions": "read-out: Stability"}, "[7]": {"assay": "Metabolic stability in Sprague-Dawley rat pooled liver microsomes assessed as compound remaining after 2 days by HPLC analysis in absence of NADPH generating system", "type": "ADME", "conditions": "read-out: Stability"}},
  "note": "Residues, ends and D or L forms follow the SMILES beside them. *: point of attachment. MeOSuc = COC(=O)CCC(=O)*; CH2Cl = ClC*",
  "data": [
    {"smiles": "O=C(O)CSc1nnc(CSc2nc3ccccc3s2)n1-c1ccccc1", "values": [
      {"measurement": "IC50", "setting": "Neutrophil elastase; read-out: IC50", "value": "> 100", "unit": "µM"}
    ]},
    {"smiles": "C=CCn1c(=O)c2ccccc2n2c(SCC(=O)NCc3cccs3)nnc12", "values": [
      {"measurement": "IC50", "setting": "Neutrophil elastase", "value": "ND(Insoluble)"}
    ]},
    {"smiles": "O=C(CSc1nc2ccccc2n1Cc1ccccc1F)NCc1ccc2c(c1)OCO2", "values": [
      {"measurement": "IC50", "setting": "Neutrophil elastase", "value": "ND(Insoluble)"}
    ]},
    {"smiles": "NC(=O)CSc1nnc2c3c4c(sc3nc(SCc3ccccc3)n12)CCCC4", "values": [
      {"measurement": "IC50", "setting": "Neutrophil elastase", "value": "ND(Insoluble)"}
    ]},
    {"smiles": "COc1ccc(CCNC(=O)C(Sc2ccccn2)c2ccccc2)cc1OC", "note": "(stereo unspecified)", "values": [
      {"measurement": "IC50", "setting": "Neutrophil elastase; read-out: IC50", "value": "> 100", "unit": "µM"}
    ]},
    {"smiles": "Cc1sc(NC(=O)CSc2nnc(Cc3ccccc3)n2C)nc1-c1ccccc1", "values": [
      {"measurement": "IC50", "setting": "Neutrophil elastase", "value": "ND(Insoluble)"}
    ]},
    {"smiles": "C=CCn1c(Cc2ccccc2)nnc1SCC(=O)Nc1nc(-c2ccccc2)cs1", "values": [
      {"measurement": "IC50", "setting": "Neutrophil elastase", "value": "ND(Insoluble)"}
    ]},
    {"smiles": "COc1ccc(C(=O)CSc2nnc(COc3ccccc3)n2Cc2ccco2)cc1", "values": [
      {"measurement": "IC50", "setting": "Neutrophil elastase", "value": "ND(Insoluble)"}
    ]},
    {"smiles": "O=C(CSc1nnc(Cc2ccccc2)n1Cc1ccccc1)NCc1ccco1", "values": [
      {"measurement": "IC50", "setting": "Neutrophil elastase; read-out: IC50", "value": "> 100", "unit": "µM"}
    ]},
    {"smiles": "Nc1c(C(=O)NCc2cccs2)c2nc3ccccc3nc2n1/N=C/c1ccccn1", "values": [
      {"measurement": "IC50", "setting": "Neutrophil elastase; read-out: IC50", "value": 17.6, "unit": "µM"}
    ]},
    {"smiles": "O=C(Cc1cn2ccsc2n1)N/N=C/c1cn(-c2ccccc2)nc1-c1cccs1", "values": [
      {"measurement": "IC50", "setting": "Neutrophil elastase", "value": "ND(Insoluble)"}
    ]},
    {"smiles": "Oc1ccc2c(c1)Oc1ncn3nc(CO/N=C/c4ccccc4)nc3c1C2c1ccccc1", "note": "(stereo unspecified)", "values": [
      {"measurement": "IC50", "setting": "Neutrophil elastase; read-out: IC50", "value": "> 100", "unit": "µM"}
    ]},
    {"smiles": "c1ccc(-c2noc(CSc3nnc(Cc4cccs4)n3-c3ccccc3)n2)cc1", "values": [
      {"measurement": "IC50", "setting": "Neutrophil elastase", "value": "ND(Insoluble)"}
    ]},
    {"smiles": "COc1ccc(-n2c(COc3ccc4ccccc4c3)nnc2SCC(=O)O)cc1", "values": [
      {"measurement": "IC50", "setting": "Neutrophil elastase; read-out: IC50", "value": "> 100", "unit": "µM"}
    ]},
    {"smiles": "Cc1occc1-c1nnc(SCC(=O)NCCc2ccccc2)n1C(C)c1ccccc1", "note": "(stereo unspecified)", "values": [
      {"measurement": "IC50", "setting": "Neutrophil elastase; read-out: IC50", "value": "> 100", "unit": "µM"}
    ]},
    {"smiles": "O=C(Oc1coc(CSc2nnc(NC(=O)C3CC3)s2)cc1=O)c1cccc(F)c1", "values": [
      {"measurement": "IC50", "setting": "Cathepsin G", "value": "> 134", "unit": "µM"},
      {"measurement": "IC50", "setting": "Myeloblastin", "value": "> 134", "unit": "µM"},
      {"measurement": "inhibition", "setting": "[1]", "value": "Dose-dependent effect"},
      {"measurement": "IC50", "setting": "HEK-293T", "value": "> 134", "unit": "µM"},
      {"measurement": "IC50", "setting": "Neutrophil elastase; read-out: IC50", "value": 18.4, "unit": "µM"},
      {"measurement": "IC50", "setting": "Pancreatic elastase", "value": "> 134", "unit": "µM"},
      {"measurement": "remaining at 48 h, 50 µM", "setting": "[2]", "value": "> 80", "unit": "%"},
      {"measurement": "IC50", "setting": "[3]", "value": "> 134", "unit": "µM"}
    ]},
    {"smiles": "O=C(NCc1ccccc1)c1ccc2nc(-c3ccccn3)c(-c3ccccn3)nc2c1", "values": [
      {"measurement": "IC50", "setting": "Neutrophil elastase; read-out: IC50", "value": "> 100", "unit": "µM"}
    ]},
    {"smiles": "NC(=O)CSc1nnc2c3c4c(sc3nc(SCc3ccccc3)n12)CCC4", "values": [
      {"measurement": "IC50", "setting": "Neutrophil elastase; read-out: IC50", "value": "> 100", "unit": "µM"}
    ]},
    {"smiles": "CCC(Sc1nc(-c2ccccc2)cc(-c2ccccc2)n1)C(=O)Nc1nnc(C)s1", "note": "(stereo unspecified)", "values": [
      {"measurement": "IC50", "setting": "Neutrophil elastase", "value": "ND(Insoluble)"}
    ]},
    {"smiles": "CCC(N)c1nc(C(=O)NC(Cc2ccccc2)C(=O)OCc2ccccc2)co1", "note": "(stereo unspecified)", "values": [
      {"measurement": "IC50", "setting": "Neutrophil elastase; read-out: IC50", "value": "> 100", "unit": "µM"}
    ]},
    {"smiles": "O=C(CSc1nnc2scc(-c3ccc(Cl)cc3)n12)NCc1cccnc1", "values": [
      {"measurement": "IC50", "setting": "Neutrophil elastase; read-out: IC50", "value": "> 100", "unit": "µM"}
    ]},
    {"smiles": "COC(=O)C(CSCc1ccccc1)NC(=O)CSc1nc2ccccc2[nH]1", "note": "(stereo unspecified)", "values": [
      {"measurement": "IC50", "setting": "Neutrophil elastase; read-out: IC50", "value": "> 100", "unit": "µM"}
    ]},
    {"smiles": "Nc1nnc(SC(C(=O)Nc2cc(Cl)cc(Cl)c2)c2ccccc2)[nH]1", "note": "(stereo unspecified)", "values": [
      {"measurement": "IC50", "setting": "Cathepsin G", "value": "> 139", "unit": "µM"},
      {"measurement": "remaining at 48 h, 100 µM", "setting": "[4]", "value": "> 80", "unit": "%"},
      {"measurement": "remaining at 48 h", "setting": "[5]", "value": "> 80", "unit": "%"},
      {"measurement": "IC50", "setting": "Myeloblastin", "value": "> 139", "unit": "µM"},
      {"measurement": "remaining at 48 h", "setting": "[6]", "value": "> 80", "unit": "%"},
      {"measurement": "inhibition", "setting": "[1]", "value": "Dose-dependent effect"},
      {"measurement": "IC50", "setting": "HEK-293T", "value": "> 139", "unit": "µM"},
      {"measurement": "IC50", "setting": "Neutrophil elastase; read-out: IC50", "value": 26.9, "unit": "µM"},
      {"measurement": "IC50", "setting": "Pancreatic elastase", "value": "> 139", "unit": "µM"},
      {"measurement": "IC50", "setting": "[3]", "value": "> 139", "unit": "µM"},
      {"measurement": "remaining at 48 h", "setting": "[7]", "value": "> 80", "unit": "%"}
    ]},
    {"smiles": "COc1ccc(-n2c(COc3ccc4ccccc4c3)nnc2SCC(N)=O)cc1", "values": [
      {"measurement": "IC50", "setting": "Neutrophil elastase; read-out: IC50", "value": "> 100", "unit": "µM"}
    ]},
    {"smiles": "COc1ccc(C(=O)CSc2nnc(COc3ccccc3)n2Cc2ccccc2)cc1", "values": [
      {"measurement": "IC50", "setting": "Neutrophil elastase", "value": "ND(Insoluble)"}
    ]},
    {"smiles": "COC(=O)CCC(=O)N[C@@H](C)C(=O)N[C@@H](C)C(=O)N1CCC[C@H]1C(=O)N[C@@H](C)C(=O)CCl", "note": "(MeOSuc-AAPA-CH2Cl)", "values": [
      {"measurement": "IC50", "setting": "Neutrophil elastase; read-out: IC50", "value": 20.3, "unit": "µM"}
    ]},
    {"smiles": "Cc1ccc(-n2c(COc3ccc4ccccc4c3)nnc2SCC(=O)O)cc1", "values": [
      {"measurement": "IC50", "setting": "Neutrophil elastase; read-out: IC50", "value": "> 100", "unit": "µM"}
    ]},
    {"smiles": "CCOC(=O)C(CSCc1ccccc1)NC(=O)c1coc(-c2ccc(N)cc2)n1", "note": "(stereo unspecified)", "values": [
      {"measurement": "IC50", "setting": "Neutrophil elastase; read-out: IC50", "value": 32.1, "unit": "µM"}
    ]},
    {"smiles": "O=C(CSc1nnc(C2CC2)n1Cc1ccccc1)NCc1ccccc1", "values": [
      {"measurement": "IC50", "setting": "Neutrophil elastase; read-out: IC50", "value": "> 100", "unit": "µM"}
    ]}
  ]
}
